Columns and labels:
anesthetized dogs = assay: Mean arterial pressure (MAP) in anesthetized dogs; type: in vivo, dog; settings: iv dose causing a maximum increase in MAP of 20 mm Hg, anesthetized female Beagle dogs
[1] = target: T1, α1A (rat submaxillary gland) (Rattus norvegicus, UniProt P43140); assay: Radioligand binding, [3H]-prazosin, α1A
T1 construct: α1A (rat submaxillary gland); from tissue; host or cells: rat submaxillary gland
T1 sequence (P43140 1-466): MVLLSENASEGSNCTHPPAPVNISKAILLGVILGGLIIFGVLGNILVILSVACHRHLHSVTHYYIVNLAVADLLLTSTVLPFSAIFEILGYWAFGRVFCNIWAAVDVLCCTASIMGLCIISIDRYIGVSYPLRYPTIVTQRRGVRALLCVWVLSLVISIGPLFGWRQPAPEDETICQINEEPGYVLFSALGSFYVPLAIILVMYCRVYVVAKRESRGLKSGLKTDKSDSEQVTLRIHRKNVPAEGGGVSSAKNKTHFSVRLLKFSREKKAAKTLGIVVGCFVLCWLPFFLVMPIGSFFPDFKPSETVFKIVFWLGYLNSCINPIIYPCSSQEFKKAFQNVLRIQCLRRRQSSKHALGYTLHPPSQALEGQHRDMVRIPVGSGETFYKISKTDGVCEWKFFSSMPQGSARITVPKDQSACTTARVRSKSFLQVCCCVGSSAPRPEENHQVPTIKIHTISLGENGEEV
How it was run: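 [3H]-prazosin radioligand displacement; α1A from rat submaxillary gland tissue, α1b hamster and α1d rat receptors each expressed in mouse fibroblasts.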

α1A (rabbit urethra) = target: T2, α1A (rabbit urethra) (Oryctolagus cuniculus, UniProt O02824); assay: Agonist tissue response, contraction of rabbit urethra; type: biochemical; settings: values without asterisk, read-out: Agonist Tissue Response (pD2) α1A (rab ureth) (converted)
T2 construct: tested for α1A functional activity using rabbit urethra; from tissue; host or cells: rabbit urethra (female New Zealand white rabbits)
T2 sequence (O02824 1-466): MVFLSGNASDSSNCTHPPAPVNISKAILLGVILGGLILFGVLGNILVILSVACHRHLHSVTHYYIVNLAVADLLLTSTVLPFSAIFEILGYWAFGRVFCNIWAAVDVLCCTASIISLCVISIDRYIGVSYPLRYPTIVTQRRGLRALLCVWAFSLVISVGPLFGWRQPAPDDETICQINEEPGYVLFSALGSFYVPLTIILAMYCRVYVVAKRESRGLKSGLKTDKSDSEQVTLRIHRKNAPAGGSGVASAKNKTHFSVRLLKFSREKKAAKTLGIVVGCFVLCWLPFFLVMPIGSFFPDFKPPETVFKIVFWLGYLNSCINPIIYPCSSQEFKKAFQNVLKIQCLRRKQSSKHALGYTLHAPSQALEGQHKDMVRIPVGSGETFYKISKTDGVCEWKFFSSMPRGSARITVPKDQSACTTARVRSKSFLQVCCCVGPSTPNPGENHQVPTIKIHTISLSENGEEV
Description: Most of the compounds were tested for α1A functional activity using rabbit urethra as follows. Female New Zealand white rabbits (2.0-3.5 Kg) were sedated with CO2 and decapitated. […] Subsequent experimental conditions were as described above for the other tissues. Agonist concentration response curves were cumulative except for the vas deferens assay in which the transient response made such measurements impractical.

Compound: CCS(=O)(=O)Nc1cccc2c1OCCC2c1c[nH]cn1 (single isomer, unassigned; (+)) [Example 95, (+) N-[4-(1H-imidazol-4-yl)-3,4-dihydro-2H-chromen-8-yl]ethanesulfonamide]
- Mean MAP ED20 (anesthetized dogs): 109.1 nmol/kg
- Ki [1]: 0.183 µM
- EC50 (α1A (rabbit urethra)): 1.38 µM

Source: US20030073850A1, “4-Imidazole derivatives of benzyl and restricted benzyl sulfonamides, sulfamides, ureas, carbamates, and amides and their use” (priority 1998, published 2003)
